Experimental data published in US11725011B2, “Bicyclic urea kinase inhibitors and uses thereof” (The Broad Institute, Inc., priority 2016, dated 2023).

Experiments:
Experiment in all cases: KINOMEscan
Assay type in all cases: binding
Conditions in all cases: 1 uM
[1] = molecular target: PIM1 (Homo sapiens (Human), UniProt P11309)
[2] = molecular target: NEK1 (Homo sapiens (Human), UniProt Q96PY6)
[3] = molecular target: PIK4CB (Homo sapiens (Human), UniProt Q9UBF8)
[4] = molecular target: MLK1 (Homo sapiens (Human), UniProt P80192)
[5] = molecular target: YANK3 (Homo sapiens (Human), UniProt Q86UX6)
[6] = molecular target: CSNK1G2 (Homo sapiens (Human), UniProt P78368)
[7] = molecular target: BIKE (Homo sapiens (Human), UniProt Q9NSY1)
[8] = molecular target: EGFR (L747-E749del, A750P) (Homo sapiens (Human), UniProt P00533, A750P/DEL747-749)
[9] = molecular target: EPHB2 (Homo sapiens (Human), UniProt P29323)
[10] = molecular target: RIOK2 (Homo sapiens (Human), UniProt Q9BVS4)
[11] = molecular target: FGR (Homo sapiens (Human), UniProt P09769)
[12] = molecular target: PIK3CA (H1047L) (Homo sapiens (Human), UniProt P42336, H1047L)
[13] = molecular target: PRKCH (Homo sapiens (Human), UniProt P24723)
[14] = molecular target: KIT (D816V) (Homo sapiens (Human), UniProt P10721, D816V)
[15] = molecular target: TAOK2 (Homo sapiens (Human), UniProt Q9UL54)
[16] = molecular target: PCTK1 (Homo sapiens (Human), UniProt Q00536)
[17] = molecular target: TNNI3K (Homo sapiens (Human), UniProt Q59H18)
[18] = molecular target: MAP3K3 (Homo sapiens (Human), UniProt Q99759)
[19] = molecular target: S6K1 (Homo sapiens (Human), UniProt P23443)
[20] = molecular target: RET (M918T) (Homo sapiens (Human), UniProt P07949, M918T)
[21] = molecular target: ADCK4 (Homo sapiens (Human), UniProt Q96D53)
[22] = molecular target: FES (Homo sapiens (Human), UniProt P07332)
[23] = molecular target: p38-gamma (Homo sapiens (Human), UniProt P53778)
[24] = molecular target: PYK2 (Homo sapiens (Human), UniProt Q14289)
[25] = molecular target: EGFR (T790M) (Homo sapiens (Human), UniProt P00533, T790M)
[26] = molecular target: CDC2L2 (Homo sapiens (Human), UniProt Q9UQ88)
[27] = molecular target: DAPK2 (Homo sapiens (Human), UniProt Q9UIK4)
[28] = molecular target: CAMK1G (Homo sapiens (Human), UniProt Q96NX5)
[29] = molecular target: INSR (Homo sapiens (Human), UniProt P06213)
[30] = molecular target: MAP4K2 (Homo sapiens (Human), UniProt Q12851)
[31] = molecular target: ITK (Homo sapiens (Human), UniProt Q08881)
[32] = molecular target: EGFR (L747-S752del, P753S) (Homo sapiens (Human), UniProt P00533, DEL747-752/P753S)
[33] = molecular target: ABL1 (T315I)-phosphorylated (Homo sapiens (Human), UniProt P00519, T315I)
[34] = molecular target: ALK (C1156Y) (Homo sapiens (Human), UniProt Q9UM73, C1156Y)
[35] = molecular target: RIOK3 (Homo sapiens (Human), UniProt O14730)
[36] = molecular target: RPS6KA5 (Kin.Dom.2-C-terminal) (Homo sapiens (Human), UniProt O75582)
[37] = molecular target: JAK1 (JH2 domain-pseudokinase) (Homo sapiens (Human), UniProt P23458)
[38] = molecular target: GCN2 (Kin.Dom.2, S808G) (Homo sapiens (Human), UniProt Q9P2K8, S808G)
[39] = molecular target: MST4 (Homo sapiens (Human), UniProt Q9P289)
Sequence of MST4 (Q9P289 whole entry): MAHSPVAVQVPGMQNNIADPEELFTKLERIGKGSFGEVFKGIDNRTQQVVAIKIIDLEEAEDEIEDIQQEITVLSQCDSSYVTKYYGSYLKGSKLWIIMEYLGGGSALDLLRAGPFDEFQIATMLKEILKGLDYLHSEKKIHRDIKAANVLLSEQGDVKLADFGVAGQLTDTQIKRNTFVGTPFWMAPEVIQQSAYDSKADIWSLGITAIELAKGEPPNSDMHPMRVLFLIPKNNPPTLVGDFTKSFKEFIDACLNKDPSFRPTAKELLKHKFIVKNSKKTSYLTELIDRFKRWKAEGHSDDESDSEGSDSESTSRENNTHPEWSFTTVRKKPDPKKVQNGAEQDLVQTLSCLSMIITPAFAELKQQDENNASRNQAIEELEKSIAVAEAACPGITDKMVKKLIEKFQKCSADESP

Sequence of PIM1 (P11309 whole entry): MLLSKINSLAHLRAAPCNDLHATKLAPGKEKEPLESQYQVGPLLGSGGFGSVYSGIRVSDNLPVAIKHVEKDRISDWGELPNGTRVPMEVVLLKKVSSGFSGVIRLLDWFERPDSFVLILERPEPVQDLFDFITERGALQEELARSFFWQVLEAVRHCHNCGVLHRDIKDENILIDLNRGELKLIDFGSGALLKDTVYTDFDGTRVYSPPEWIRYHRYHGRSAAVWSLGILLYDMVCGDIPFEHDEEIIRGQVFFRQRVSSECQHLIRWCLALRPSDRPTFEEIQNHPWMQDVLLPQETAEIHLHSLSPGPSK
Sequence of CAMK1G (Q96NX5 whole entry): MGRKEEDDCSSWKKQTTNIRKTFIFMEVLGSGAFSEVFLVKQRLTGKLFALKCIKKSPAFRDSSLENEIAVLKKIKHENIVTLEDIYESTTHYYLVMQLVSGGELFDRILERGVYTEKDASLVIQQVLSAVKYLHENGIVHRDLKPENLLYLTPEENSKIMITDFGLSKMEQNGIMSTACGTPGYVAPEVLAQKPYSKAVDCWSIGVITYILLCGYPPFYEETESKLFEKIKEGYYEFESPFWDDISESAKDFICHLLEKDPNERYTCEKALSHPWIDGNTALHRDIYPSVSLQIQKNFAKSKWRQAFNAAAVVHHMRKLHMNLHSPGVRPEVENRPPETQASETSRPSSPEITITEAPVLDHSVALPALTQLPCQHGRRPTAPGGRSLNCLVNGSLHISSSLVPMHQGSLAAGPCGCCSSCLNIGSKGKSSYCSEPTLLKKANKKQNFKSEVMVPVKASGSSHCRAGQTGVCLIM
Sequence of TNNI3K (Q59H18 whole entry): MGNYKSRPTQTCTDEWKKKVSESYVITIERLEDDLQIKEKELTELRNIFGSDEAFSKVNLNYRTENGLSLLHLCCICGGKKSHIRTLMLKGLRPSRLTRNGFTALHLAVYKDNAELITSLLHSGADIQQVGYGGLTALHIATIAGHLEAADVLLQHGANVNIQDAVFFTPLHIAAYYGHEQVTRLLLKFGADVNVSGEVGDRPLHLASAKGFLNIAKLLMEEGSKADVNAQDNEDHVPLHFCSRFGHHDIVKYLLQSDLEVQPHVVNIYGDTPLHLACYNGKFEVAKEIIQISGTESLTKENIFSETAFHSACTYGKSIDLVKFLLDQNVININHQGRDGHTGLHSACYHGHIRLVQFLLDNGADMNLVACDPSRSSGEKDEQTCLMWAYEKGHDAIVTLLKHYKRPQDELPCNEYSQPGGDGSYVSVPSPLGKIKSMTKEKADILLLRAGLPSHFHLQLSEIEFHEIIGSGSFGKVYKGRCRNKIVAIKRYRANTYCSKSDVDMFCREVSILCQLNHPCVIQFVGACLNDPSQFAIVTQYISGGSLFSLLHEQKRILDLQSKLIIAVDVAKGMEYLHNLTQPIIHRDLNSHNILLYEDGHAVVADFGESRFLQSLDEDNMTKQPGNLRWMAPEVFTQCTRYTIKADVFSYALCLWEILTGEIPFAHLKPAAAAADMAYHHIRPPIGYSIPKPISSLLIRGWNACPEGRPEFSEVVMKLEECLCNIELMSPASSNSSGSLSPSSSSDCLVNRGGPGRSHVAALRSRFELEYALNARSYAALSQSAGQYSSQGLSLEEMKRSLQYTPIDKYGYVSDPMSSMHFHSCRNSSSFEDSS
Sequence of S6K1 (P23443 whole entry): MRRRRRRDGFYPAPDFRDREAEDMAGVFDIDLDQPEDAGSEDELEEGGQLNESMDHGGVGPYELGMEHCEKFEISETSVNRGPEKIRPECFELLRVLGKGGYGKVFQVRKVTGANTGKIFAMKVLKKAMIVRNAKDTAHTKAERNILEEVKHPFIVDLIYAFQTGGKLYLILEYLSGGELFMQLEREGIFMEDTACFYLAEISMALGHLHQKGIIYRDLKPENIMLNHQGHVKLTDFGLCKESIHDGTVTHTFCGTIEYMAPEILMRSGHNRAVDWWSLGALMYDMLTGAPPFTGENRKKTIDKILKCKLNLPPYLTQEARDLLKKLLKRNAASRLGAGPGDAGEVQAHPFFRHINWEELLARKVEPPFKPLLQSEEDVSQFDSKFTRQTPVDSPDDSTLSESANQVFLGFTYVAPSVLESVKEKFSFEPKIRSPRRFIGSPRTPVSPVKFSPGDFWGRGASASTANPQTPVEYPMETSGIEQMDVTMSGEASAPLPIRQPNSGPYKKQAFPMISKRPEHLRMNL
Sequence of ALK (C1156Y) (Q9UM73 19-1620 C1156Y): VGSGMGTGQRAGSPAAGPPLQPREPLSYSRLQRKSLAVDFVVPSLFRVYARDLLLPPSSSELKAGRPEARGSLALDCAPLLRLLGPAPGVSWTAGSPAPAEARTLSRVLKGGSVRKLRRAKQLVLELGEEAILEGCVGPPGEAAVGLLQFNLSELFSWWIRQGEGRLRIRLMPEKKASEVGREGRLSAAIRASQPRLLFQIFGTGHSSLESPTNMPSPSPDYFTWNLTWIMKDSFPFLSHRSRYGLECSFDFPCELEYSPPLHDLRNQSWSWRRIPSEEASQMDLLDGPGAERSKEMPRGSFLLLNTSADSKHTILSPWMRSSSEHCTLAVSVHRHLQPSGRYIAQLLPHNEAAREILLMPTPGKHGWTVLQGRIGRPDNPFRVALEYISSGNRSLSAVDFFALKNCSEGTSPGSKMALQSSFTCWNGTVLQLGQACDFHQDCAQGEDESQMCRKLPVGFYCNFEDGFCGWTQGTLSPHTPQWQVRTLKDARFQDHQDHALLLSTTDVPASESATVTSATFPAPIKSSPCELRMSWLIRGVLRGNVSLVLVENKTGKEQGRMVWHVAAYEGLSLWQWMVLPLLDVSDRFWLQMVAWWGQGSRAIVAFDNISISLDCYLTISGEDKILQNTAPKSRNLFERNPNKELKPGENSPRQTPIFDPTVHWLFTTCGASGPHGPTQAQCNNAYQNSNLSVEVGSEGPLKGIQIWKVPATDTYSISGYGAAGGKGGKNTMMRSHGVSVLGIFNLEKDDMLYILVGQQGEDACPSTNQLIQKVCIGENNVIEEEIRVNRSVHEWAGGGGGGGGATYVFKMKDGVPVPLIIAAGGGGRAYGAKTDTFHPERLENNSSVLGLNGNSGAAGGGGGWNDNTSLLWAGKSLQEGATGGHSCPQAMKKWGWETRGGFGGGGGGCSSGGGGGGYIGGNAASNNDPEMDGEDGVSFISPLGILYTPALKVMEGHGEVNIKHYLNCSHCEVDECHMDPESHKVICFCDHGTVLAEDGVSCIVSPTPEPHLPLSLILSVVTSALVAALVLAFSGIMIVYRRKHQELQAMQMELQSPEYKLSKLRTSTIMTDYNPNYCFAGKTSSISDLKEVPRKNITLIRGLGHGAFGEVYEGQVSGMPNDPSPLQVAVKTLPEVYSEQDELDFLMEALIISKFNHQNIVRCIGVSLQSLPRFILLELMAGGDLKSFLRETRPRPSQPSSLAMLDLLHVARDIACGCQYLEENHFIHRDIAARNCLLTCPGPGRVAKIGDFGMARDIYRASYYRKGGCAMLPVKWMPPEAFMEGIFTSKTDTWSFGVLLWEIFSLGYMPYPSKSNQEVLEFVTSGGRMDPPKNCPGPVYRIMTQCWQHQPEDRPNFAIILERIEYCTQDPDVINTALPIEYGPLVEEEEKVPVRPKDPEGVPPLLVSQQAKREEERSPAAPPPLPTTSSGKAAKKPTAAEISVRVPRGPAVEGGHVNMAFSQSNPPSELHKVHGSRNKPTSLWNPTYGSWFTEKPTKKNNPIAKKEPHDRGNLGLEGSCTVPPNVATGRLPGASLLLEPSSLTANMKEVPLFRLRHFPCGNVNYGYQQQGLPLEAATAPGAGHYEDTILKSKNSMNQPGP
Sequence of FES (P07332 whole entry): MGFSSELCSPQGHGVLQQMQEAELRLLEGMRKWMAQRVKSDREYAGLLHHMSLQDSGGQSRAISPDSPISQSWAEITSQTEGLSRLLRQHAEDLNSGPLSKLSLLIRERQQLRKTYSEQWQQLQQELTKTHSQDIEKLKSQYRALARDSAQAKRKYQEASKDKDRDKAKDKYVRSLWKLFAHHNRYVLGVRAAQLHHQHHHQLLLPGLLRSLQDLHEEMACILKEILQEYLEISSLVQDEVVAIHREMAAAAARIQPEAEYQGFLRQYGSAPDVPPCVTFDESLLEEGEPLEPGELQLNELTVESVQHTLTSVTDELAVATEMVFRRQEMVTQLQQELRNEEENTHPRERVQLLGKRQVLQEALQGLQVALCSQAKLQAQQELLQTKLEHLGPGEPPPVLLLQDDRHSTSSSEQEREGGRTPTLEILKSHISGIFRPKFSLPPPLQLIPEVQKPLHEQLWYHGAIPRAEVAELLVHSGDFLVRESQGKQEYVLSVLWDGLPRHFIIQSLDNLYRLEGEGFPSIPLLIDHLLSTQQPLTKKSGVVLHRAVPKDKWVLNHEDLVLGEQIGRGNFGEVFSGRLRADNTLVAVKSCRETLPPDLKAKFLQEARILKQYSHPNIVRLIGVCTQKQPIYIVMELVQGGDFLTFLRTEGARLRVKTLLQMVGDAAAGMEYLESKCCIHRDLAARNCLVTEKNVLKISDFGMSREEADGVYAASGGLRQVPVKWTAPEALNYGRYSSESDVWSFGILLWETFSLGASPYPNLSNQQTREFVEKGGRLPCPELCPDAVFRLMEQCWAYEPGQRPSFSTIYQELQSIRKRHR

How did the “KINOMEscan PIM1” value [1] turn out when COc1ccc(N2C(=O)N(c3c(C)cccc3C)Cc3cnc(Nc4ccc(N5CCN(C)CC5)cc4)nc32)c(OC)c1 [HG-11-136-01] was run?
The value was 100.

What about the “KINOMEscan NEK1” value [2] of the same compound?
Its value is 88.

And the “KINOMEscan PIK4CB” value [3]?
Its value is 63.

And the “KINOMEscan MLK1” value [4]?
The value was 6.

What about the “KINOMEscan YANK3” value [5] of the same compound?
Its value is 32.

And the “KINOMEscan CSNK1G2” value [6]?
Its value is 100.

And the “KINOMEscan BIKE” value [7]?
The value was 8.8.

What about the “KINOMEscan EGFR (L747-E749del, A750P)” value [8] of the same compound?
The value was 0.35.

And the “KINOMEscan EPHB2” value [9]?
Its value is 0.

What about the “KINOMEscan RIOK2” value [10] of the same compound?
Its value is 87.

And the “KINOMEscan FGR” value [11]?
Its value is 0.

And the “KINOMEscan PIK3CA (H1047L)” value [12]?
Its value is 96.

What about the “KINOMEscan PRKCH” value [13] of the same compound?
Its value is 100.

What about the “KINOMEscan KIT (D816V)” value [14] of the same compound?
The value was 0.2.

What about the “KINOMEscan TAOK2” value [15] of the same compound?
The value was 0.

What about the “KINOMEscan PCTK1” value [16] of the same compound?
The value was 73.

And the “KINOMEscan TNNI3K” value [17]?
Its value is 3.6.

What about the “KINOMEscan MAP3K3” value [18] of the same compound?
The value was 0.1.

What about the “KINOMEscan S6K1” value [19] of the same compound?
Its value is 72.

What about the “KINOMEscan RET (M918T)” value [20] of the same compound?
The value was 0.05.

And the “KINOMEscan ADCK4” value [21]?
The value was 44.

And the “KINOMEscan FES” value [22]?
The value was 0.

And the “KINOMEscan p38-gamma” value [23]?
The value was 91.

And the “KINOMEscan PYK2” value [24]?
Its value is 15.

What about the “KINOMEscan EGFR (T790M)” value [25] of the same compound?
The value was 0.7.

What about the “KINOMEscan CDC2L2” value [26] of the same compound?
The value was 83.

And the “KINOMEscan DAPK2” value [27]?
Its value is 88.

What about the “KINOMEscan CAMK1G” value [28] of the same compound?
Its value is 95.

And the “KINOMEscan INSR” value [29]?
The value was 48.

What about the “KINOMEscan MAP4K2” value [30] of the same compound?
Its value is 0.3.

And the “KINOMEscan ITK” value [31]?
The value was 66.

And the “KINOMEscan EGFR (L747-S752del, P753S)” value [32]?
The value was 0.95.

And the “KINOMEscan ABL1 (T315I)-phosphorylated” value [33]?
The value was 1.2.

And the “KINOMEscan ALK (C1156Y)” value [34]?
Its value is 12.

What about the “KINOMEscan RIOK3” value [35] of the same compound?
The value was 25.

What about the “KINOMEscan RPS6KA5 (Kin.Dom.2-C-terminal)” value [36] of the same compound?
Its value is 80.

And the “KINOMEscan JAK1 (JH2 domain-pseudokinase)” value [37]?
The value was 8.1.

And the “KINOMEscan GCN2 (Kin.Dom.2, S808G)” value [38]?
The value was 0.75.

And the “KINOMEscan MST4” value [39]?
Its value is 2.8.
